Legend:
ODC = details: tape-stripped mouse epidermis; M. Connor and N. Lowe 1983; cited from earlier work
humans = details: cited from earlier work
[1] = test system: ornithine decarboxylase (ODC); experiment: Tape-stripped epidermal ODC activity in female hairless mice (In Vivo Assay); parameters: species or system mouse (female hairless mice)
Source text: (§1) Tape-stripping mouse epidermis is quick and convenient method of inducing ODC activity that avoids the necessity of handling carcinogens. M. Connor and N. Lowe (J. Invest. Dermatol 43, 5174, 1983) have studied the ability of retinoids to inhibit ODC. […] In vitro methods have also been useful in determining the anti-hyperproliferative activity of drugs. C. Marcelo and J. Tomich (J. Invest. Dermatol. 81, 64s, 1983) have shown that neonatal mouse keratinocyte cultures can be used to identify drugs that inhibit DNA synthesis. More recently, R. Weiss, Eichner, R. and Sunn, T. T, J. Cell Biol., 98: 1397-1406, (1984) have shown that epidermal cultures are in fact, a model of epidermal hyperproliferation and therefore a good model for testing drugs that inhibit hyperporliferation.
Female hairless mice were tape-stripped and ODC activity determined according to the method of M. Connor and N. Lowe (J. Invest. Dermatol. 43, 5174, 1983).
**50 mg/kg; IP, 30 min before tapestripping

keratinocytes = experiment: Inhibition of DNA synthesis in neonatal mouse keratinocyte cultures (3H-thymidine; In Vitro Assay); type: cell-based, mouse (neonatal balb/c); details: daily drug for three days; FIG. 2
Source text: as §1
Keratinocytes from 1-2 day old neonatal balb/c mice were used. Cells were plated in 35 mm culture dishes in M199 medium containing 10% FCS and incubated at 37° C. in 5% CO2. Cells were allowed to reach confluency at which time 0.01, 0.1, 1.0, 10 and 20 μM manoalide was added in DMSO. Fresh media and drug were added each day to culture for three days. On the fourth day cells were pulsed with ^3 H-thymidine (1 µCi/ml) to determine how much manoalide inhibited DNA syntheses (CPM/μg DNA).

SMILES	inhibition of ODC (ODC)	therapeutic activity in humans (humans)	% Inhibition (ODC) ([1]; 50 mg/kg, IP, 30 min before tapestripping, p < .05)	ODC ([1]; 50 mg/kg, IP, 30 min before tapestripping, vehicle (soybean oil) 6.1 ± 1.2)	inhibition of tape-stripped ODC after systemic administration ([1]; systemic administration)	inhibition of keratinocyte DNA synthesis (keratinocytes)
CC1=C(/C=C/C(C)=C/C=C/C(C)=C\C(=O)O)C(C)(C)CCC1 [13-cis retinoic acid]	active at inhibiting ODC	therapeutically active in humans				
CC1=C(CC/C(C)=C/CCC2=CCC(C3=CC(=O)OC3O)OC2O)C(C)(C)CCC1 (stereo not shown) [Manoalide]			54%	2.8 ± 0.6 nmoles ^14 CO2 (mg protein/mg protein/hr)	can also inhibit tape-stripped ODC	inhibit keratinocyte DNA synthesis in a dose related fashion
CC1=C(/C=C/C(C)=C/C=C/C(C)=C/C(=O)O)C(C)(C)CCC1 [Trans-retinoic acid]	active at inhibiting ODC	therapeutically active in humans				
CCOC(=O)/C=C(C)/C=C/C=C(C)/C=C/c1c(C)cc(OC)c(C)c1C [etretinate]	active at inhibiting ODC	therapeutically active in humans				
